How the values were obtained:
K562 = experiment: Antiproliferative activity against human K562 cells assessed as cell viability after 72 hrs by CellTiter-Glo or CCK-8 assay; format: functional; details: K562, 72 h
[1] = Antiproliferative activity against mouse BA/F3 cells assessed as cell viability after 72 hrs by CellTiter-Glo or CCK-8 assay; format: cell-based, BaF3
[2] = biological target: Transcription factor ETV6/Tyrosine-protein kinase ABL1 (Homo sapiens) (UniProt P00519+P41212); details: BaF3
Sequence of Transcription factor ETV6/Tyrosine-protein kinase ABL1 (Homo sapiens) (P00519 whole entry, looked up, the tested form may be a part): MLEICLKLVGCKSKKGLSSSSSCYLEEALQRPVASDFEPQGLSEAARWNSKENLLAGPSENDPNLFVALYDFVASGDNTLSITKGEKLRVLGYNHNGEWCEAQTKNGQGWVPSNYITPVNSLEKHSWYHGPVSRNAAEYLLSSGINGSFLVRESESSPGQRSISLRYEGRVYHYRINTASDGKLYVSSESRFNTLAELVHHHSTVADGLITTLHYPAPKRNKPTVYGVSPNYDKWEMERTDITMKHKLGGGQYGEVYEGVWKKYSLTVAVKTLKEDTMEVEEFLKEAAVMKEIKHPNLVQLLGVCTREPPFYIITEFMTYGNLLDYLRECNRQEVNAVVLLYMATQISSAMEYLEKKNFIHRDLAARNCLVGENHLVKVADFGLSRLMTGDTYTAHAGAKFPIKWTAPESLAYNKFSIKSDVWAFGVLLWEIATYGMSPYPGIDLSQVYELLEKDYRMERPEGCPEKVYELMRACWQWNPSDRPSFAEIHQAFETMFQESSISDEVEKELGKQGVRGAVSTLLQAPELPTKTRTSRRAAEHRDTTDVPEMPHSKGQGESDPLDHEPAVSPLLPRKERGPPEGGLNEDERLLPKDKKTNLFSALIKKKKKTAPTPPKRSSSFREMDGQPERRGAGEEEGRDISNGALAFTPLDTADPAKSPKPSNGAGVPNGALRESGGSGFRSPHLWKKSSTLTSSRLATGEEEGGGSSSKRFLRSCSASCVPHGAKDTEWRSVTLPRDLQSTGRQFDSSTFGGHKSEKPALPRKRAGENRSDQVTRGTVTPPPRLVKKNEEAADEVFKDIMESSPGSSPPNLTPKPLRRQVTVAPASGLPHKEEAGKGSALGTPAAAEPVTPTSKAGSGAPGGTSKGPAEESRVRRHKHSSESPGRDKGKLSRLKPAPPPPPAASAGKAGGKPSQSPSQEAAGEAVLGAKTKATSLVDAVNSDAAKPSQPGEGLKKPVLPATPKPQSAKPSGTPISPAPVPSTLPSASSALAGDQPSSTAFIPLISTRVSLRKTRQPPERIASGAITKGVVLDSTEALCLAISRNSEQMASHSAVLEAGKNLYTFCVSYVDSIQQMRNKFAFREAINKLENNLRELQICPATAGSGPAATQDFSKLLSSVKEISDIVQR
Sequence of Transcription factor ETV6/Tyrosine-protein kinase ABL1 (Homo sapiens) (P41212 whole entry, looked up, the tested form may be a part): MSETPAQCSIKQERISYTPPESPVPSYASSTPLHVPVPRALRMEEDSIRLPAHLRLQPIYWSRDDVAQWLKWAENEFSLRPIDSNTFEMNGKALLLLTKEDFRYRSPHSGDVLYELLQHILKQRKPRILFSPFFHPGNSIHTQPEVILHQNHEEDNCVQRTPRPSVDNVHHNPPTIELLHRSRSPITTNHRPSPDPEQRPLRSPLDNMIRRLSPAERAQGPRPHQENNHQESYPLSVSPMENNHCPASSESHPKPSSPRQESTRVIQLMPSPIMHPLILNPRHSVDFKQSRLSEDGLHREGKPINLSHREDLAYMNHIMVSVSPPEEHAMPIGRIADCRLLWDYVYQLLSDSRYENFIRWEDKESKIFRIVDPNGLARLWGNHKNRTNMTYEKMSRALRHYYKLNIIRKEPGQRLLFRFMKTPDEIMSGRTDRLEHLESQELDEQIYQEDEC
Description: Inhibition of Tel-ABL (unknown origin) expressed in mouse BA/F3 cells assessed as cell growth inhibition after 72 hrs by CellTiter-Glo or CCK-8 assay

[3] = biological target: Bcr/Abl fusion protein (Homo sapiens) (UniProt P00519+P11274); details: BaF3
Sequence of Bcr/Abl fusion protein (Homo sapiens) (P00519 whole entry, looked up, the tested form may be a part): as the sequence (P00519 whole entry, looked up, the tested form may be a part) above
Sequence of Bcr/Abl fusion protein (Homo sapiens) (P11274 whole entry, looked up, the tested form may be a part): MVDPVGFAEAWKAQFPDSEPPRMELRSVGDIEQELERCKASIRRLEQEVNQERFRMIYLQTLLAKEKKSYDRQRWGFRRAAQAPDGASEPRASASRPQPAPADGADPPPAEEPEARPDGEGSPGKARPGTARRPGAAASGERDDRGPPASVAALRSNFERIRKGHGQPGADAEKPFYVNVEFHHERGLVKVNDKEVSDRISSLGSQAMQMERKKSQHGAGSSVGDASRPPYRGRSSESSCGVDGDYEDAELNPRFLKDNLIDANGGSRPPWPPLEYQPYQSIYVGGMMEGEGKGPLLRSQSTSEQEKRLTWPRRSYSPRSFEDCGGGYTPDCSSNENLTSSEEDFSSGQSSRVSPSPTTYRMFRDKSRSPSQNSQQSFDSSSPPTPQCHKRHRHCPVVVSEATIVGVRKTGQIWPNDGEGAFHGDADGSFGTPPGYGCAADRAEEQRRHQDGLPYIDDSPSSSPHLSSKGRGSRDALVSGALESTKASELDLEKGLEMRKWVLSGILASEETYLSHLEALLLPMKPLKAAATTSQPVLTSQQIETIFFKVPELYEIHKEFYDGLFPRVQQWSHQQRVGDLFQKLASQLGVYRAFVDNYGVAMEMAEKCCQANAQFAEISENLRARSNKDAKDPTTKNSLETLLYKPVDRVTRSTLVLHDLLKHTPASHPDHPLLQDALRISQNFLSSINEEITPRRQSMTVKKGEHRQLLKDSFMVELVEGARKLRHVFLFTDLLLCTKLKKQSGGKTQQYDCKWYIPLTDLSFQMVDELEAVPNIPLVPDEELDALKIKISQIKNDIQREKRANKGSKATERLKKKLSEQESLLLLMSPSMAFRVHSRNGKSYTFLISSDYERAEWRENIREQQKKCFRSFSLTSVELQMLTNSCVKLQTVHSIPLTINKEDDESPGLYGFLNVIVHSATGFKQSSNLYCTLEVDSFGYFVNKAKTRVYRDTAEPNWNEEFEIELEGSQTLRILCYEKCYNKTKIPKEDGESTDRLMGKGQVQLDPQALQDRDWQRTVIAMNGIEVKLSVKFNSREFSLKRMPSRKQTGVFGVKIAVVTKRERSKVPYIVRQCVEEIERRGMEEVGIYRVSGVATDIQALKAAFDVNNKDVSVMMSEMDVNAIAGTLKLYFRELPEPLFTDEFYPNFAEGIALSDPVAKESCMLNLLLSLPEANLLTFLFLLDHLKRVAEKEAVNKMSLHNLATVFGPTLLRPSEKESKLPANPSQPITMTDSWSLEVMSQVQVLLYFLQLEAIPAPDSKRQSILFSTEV
Description: Inhibition of BCR/ABL p210 (unknown origin) expressed in mouse BA/F3 cells assessed as growth inhibition after 72 hrs by CellTiter-Glo or CCK-8 assay

| Compound | GI50 (K562) | GI50 at 72 h [1] | GI50 [2] | GI50 [3] |
| --- | --- | --- | --- | --- |
| Cc1ccc(Nc2ncc(C(=O)Nc3cc(NC(=O)c4cccc(C(F)(F)F)c4)ccc3C)c(N(C)C)n2)cc1N | 1210 nM | > 10000 nM | 1030 nM | 1850 nM |
| Cc1ccc(NC(=O)c2cccc(C(F)(F)F)c2)cc1N1Cc2cnc(OC3CCNCC3)nc2N(C)C1=O | 220 nM | > 10000 nM | 2040 nM | 2700 nM |
| Cc1ccc(NC(=O)c2cccc(C(F)(F)F)c2)cc1NC(=O)c1cnc(Nc2ccc(C)c([N+](=O)[O-])c2)nc1 | 380 nM | 8700 nM | 1400 nM | 1200 nM |
| CNc1nc(Nc2ccc(C)c([N+](=O)[O-])c2)ncc1C(=O)Nc1cc(NC(=O)c2ccc3c(c2)OCCO3)ccc1C | 320 nM | > 10000 nM | 4240 nM | 4100 nM |
| Cc1ccc(NC(=O)c2cccc(C(F)(F)F)c2)cc1N1Cc2cnc(Nc3ccc(C)c(C(F)(F)F)c3)nc2N(C)C1=O | 29 nM | > 10000 nM | 185 nM | 67 nM |
| CNc1nc(Nc2ccc(C)c(N)c2)ncc1C(=O)Nc1cc(NC(=O)c2cc(OC)c(OC)c(OC)c2)ccc1C | 250 nM | > 10000 nM | 445 nM | 670 nM |
| Cc1ccc(Nc2ncc3c(n2)N(C)C(=O)N(c2cc(NC(=O)c4cccc(C(F)(F)F)c4)ccc2C)C3)cc1N(C)C | 28 nM | > 10000 nM | 42 nM | 30 nM |
| Cc1ccc(NC(=O)c2cccc(C(F)(F)F)c2)cc1N1Cc2cnc(NCCCN3CCOCC3)nc2N(C)C1=O | 7 nM | 5600 nM | 9 nM | 15 nM |
| Cc1ccc(Nc2ncc3c(n2)N(C)C(=O)N(c2cc(NC(=O)c4cccc(C(F)(F)F)c4)ccc2C)C3)cc1 | 18 nM | 8000 nM | 50 nM | 19 nM |
| Cc1ccc(NC(=O)c2cccc(C(F)(F)F)c2)cc1N1Cc2cnc(NC3CCNCC3)nc2N(C)C1=O | 19 nM | 3000 nM | 100 nM | 150 nM |
| CNc1nc(Nc2ccc(C)c(N)c2)ncc1C(=O)Nc1cc(NC(=O)c2ccccc2OC)ccc1C | 1980 nM | > 10000 nM | 5200 nM | 6400 nM |
| Cc1ccc(NC(=O)c2cccc(C(F)(F)F)c2)cc1N1Cc2cnc(O[C@H]3CCN(C(=O)OC(C)(C)C)C3)nc2N(C)C1=O | 30 nM | 8380 nM | 292 nM | 126 nM |
| CNc1nc(Nc2ccc(C)c([N+](=O)[O-])c2)ncc1C(=O)Nc1cc(NC(=O)c2ccccc2OC)ccc1C | > 10000 nM | > 10000 nM | > 10000 nM | > 10000 nM |
| CNc1nc(Nc2ccc(C)c(N)c2)ncc1C(=O)Nc1cc(NC(=O)c2ccc3c(c2)OCO3)ccc1C | 353 nM | > 10000 nM | 570 nM | 124 nM |
| Cc1ccc(Nc2ncc(C(=O)Nc3cc(NC(=O)c4cccc(C(F)(F)F)c4)ccc3C)cn2)cc1N | 330 nM | > 10000 nM | 590 nM | 470 nM |
| CNc1nc(Nc2ccc(C)c(N)c2)ncc1C(=O)Nc1cc(NC(=O)c2ccc3c(c2)OCCO3)ccc1C | 320 nM | > 10000 nM | 787 nM | 1100 nM |
| Cc1ccc(Nc2ncc3c(n2)N(C)C(=O)N(c2cc(NC(=O)c4cc(C(C)(C)C)cc(C(C)(C)C)c4)ccc2C)C3)cc1N | 1300 nM | > 10000 nM | 96 nM | 120 nM |
| CNc1nc(Nc2ccc(C)c([N+](=O)[O-])c2)ncc1C(=O)Nc1cc(NC(=O)c2ccc(OC)cc2)ccc1C | 1530 nM | > 10000 nM | 2900 nM | 3600 nM |

| Compound | GI50 (K562) | GI50 at 72 h [1] | GI50 [2] | GI50 [3] |
| --- | --- | --- | --- | --- |
| CNc1nc(Nc2ccc(C)c(N)c2)ncc1C(=O)Nc1cc(NC(=O)c2cc(OC)cc(OC)c2)ccc1C | 230 nM | > 10000 nM | 628 nM | 311 nM |
| CNc1cc(Nc2ncc3c(n2)N(C)C(=O)N(c2cc(NC(=O)c4cccc(C(F)(F)F)c4)ccc2C)C3)ccc1C | 19 nM | > 10000 nM | 20 nM | 14 nM |
| Cc1ccc(Nc2ncc3c(n2)N(C)C(=O)N(c2cc(NC(=O)c4cccc(-c5ccccc5)c4)ccc2C)C3)cc1N | 23 nM | > 10000 nM | 39 nM | 46 nM |
| Cc1cc(C)cc(C(=O)Nc2ccc(C)c(N3Cc4cnc(Nc5ccc(C)c(N)c5)nc4N(C)C3=O)c2)c1 | 26 nM | > 10000 nM | 31 nM | 42 nM |
| CNc1nc(Nc2ccc(C)c(N)c2)ncc1C(=O)Nc1cc(NC(=O)c2ccc(OC)c(OC)c2)ccc1C | 380 nM | > 10000 nM | 1100 nM | 1600 nM |
| Cc1ccc(Oc2ncc3c(n2)N(C)C(=O)N(c2cc(NC(=O)c4cccc(C(F)(F)F)c4)ccc2C)C3)cc1N | 13 nM | > 10000 nM | 15 nM | 32 nM |
| CNc1nc(Nc2ccc(C)c([N+](=O)[O-])c2)ncc1C(=O)Nc1cc(NC(=O)c2cccc(C(F)(F)F)c2)ccc1C | 52 nM | > 10000 nM | 87 nM | 36 nM |
| Cc1ccc(NC(=O)c2cccc(C(F)(F)F)c2)cc1N1Cc2cnc(NC3CCN(C(=O)OC(C)(C)C)CC3)nc2N(C)C1=O | 18 nM | 7520 nM | 105 nM | 55 nM |
| Cc1ccc(NC(=O)c2cccc(C(F)(F)F)c2)cc1N1Cc2cnc(O[C@H]3CCNC3)nc2N(C)C1=O | 450 nM | > 10000 nM | 1380 nM | 1260 nM |
| Cc1ccc(NC(=O)c2cccc(C(F)(F)F)c2)cc1NC(=O)c1cnc(Nc2ccc(C)c([N+](=O)[O-])c2)nc1N(C)C | > 10000 nM | > 10000 nM | > 10000 nM | > 10000 nM |
| Cc1ccc(NC(=O)c2cccc(C(F)(F)F)c2)cc1N1Cc2cnc(OC3CCN(C(=O)OC(C)(C)C)CC3)nc2N(C)C1=O | 29 nM | > 10000 nM | 288 nM | 132 nM |
| Cc1ccc(Nc2ncc3c(n2)N(C)C(=O)N(c2cc(NC(=O)c4cccc(C(F)(F)F)c4)ccc2C)C3)cn1 | 9 nM | 120 nM | – | – |
| CNc1nc(Nc2ccc(C)c(N)c2)ncc1C(=O)Nc1cc(NC(=O)c2cccc(OC)c2)ccc1C | 330 nM | > 10000 nM | 524 nM | 570 nM |
| CNc1nc(Nc2ccc(C)c([N+](=O)[O-])c2)ncc1C(=O)Nc1cc(NC(=O)c2ccc3c(c2)OCO3)ccc1C | 499 nM | > 10000 nM | 1290 nM | 214 nM |
| CNc1nc(Nc2ccc(C)c([N+](=O)[O-])c2)ncc1C(=O)Nc1cc(NC(=O)c2cc(OC)cc(OC)c2)ccc1C | 1070 nM | > 10000 nM | 2030 nM | 294 nM |
| CNc1nc(Nc2ccc(C)c([N+](=O)[O-])c2)ncc1C(=O)Nc1cc(NC(=O)c2cc(OC)c(OC)c(OC)c2)ccc1C | 430 nM | > 10000 nM | 931 nM | 1500 nM |
| Cc1ccc(Nc2ncc3c(n2)N(C)C(=O)N(c2cc(NC(=O)c4cccc(C(F)(F)F)c4)ccc2C)C3)cc1N | 3 nM | 440 nM | 5 nM | 5 nM |

— ChEMBL document CHEMBL3779840, “Discovery of 2-((3-Amino-4-methylphenyl)amino)-N-(2-methyl-5-(3-(trifluoromethyl)benzamido)phenyl)-4-(methylamino)pyrimidine-5-carboxamide (CHMFL-ABL-053) as a Potent, Selective, and Orally Available BCR-ABL/SRC/p38 Kinase Inhibitor for Chronic Myeloid Leukemia” (J Med Chem, 2016)
